Consider 1 molecule from publication PMC11791199 (Scientific Reports, 2025).

One experiment addresses ClpC1 NTD F80A mutant (Mycobacterium tuberculosis, UniProt P9WPC9, F80A). The experiment is classed as binding.
For another experiment, the target named is ClpC1 NTD K85A mutant (Mycobacterium tuberculosis, UniProt P9WPC9, K85A). The experiment is classed as binding.

Molecules are shown by their SMILES. Entries after “also recorded” stand apart in the source; their conditions may differ.

As for `CC1=C[C@@H](/C=C(\Cl)c2ccc(C(=O)O)cc2)[C@]2(C(=O)O)C=C[C@@H](CCOC(=O)c3ccc(NCc4ccccc4)cc3)C[C@@H]2C1` [F5, (2R,4aR,5S,8aR)-2-(2-((4-(benzylamino)benzoyl)oxy)ethyl)-5-((Z)-2-(4-carboxyphenyl)-2-chlorovinyl)-7-methyl-1,5,8,8a-tetrahydronaphthalene-4a(2H)-carboxylic acid], the “binding by ITC” value on ClpC1 NTD F80A mutant and at ClpC1 NTD K85A mutant was “no binding could be observed; also recorded: no binding was observed” in each case.
